Source: patent US20220211877A1, “COMPOUND FOR INTRAOPERATIVE MOLECULAR BIOIMAGING, METHOD OF MAKING THE SAME, USE THEREOF IN INTRAOPERATIVE MOLECULAR BIOIMAGING AND SURGICAL METHOD COMPRISING INTRAOPERATIVE MOLECULAR BIOIMAGING” (Klinikum rechts der lsar der Techischen Universität München, priority 2018, published 2022)
Where a SMILES comes first, the peptide text is derived from it. Side-chain parts run from the residue outwards. [ ]: non-standard residue; d: D form. The star is where a group is joined. IRDye800CW = CC1(C)C(/C=C/C2=C(Oc3ccc(S(=O)(=O)O)cc3)C(=C/C=C3/N(CCCCS(=O)(=O)O)c4ccc(S(=O)(=O)O)cc4C3(C)C)/CCC2)=[N+](CCCCCC(=O)*)c2ccc(S(=O)(=O)[O-])cc21; NMeK = CN[C@@H](CCCCN)C(=O)O; Ahx = NCCCCCC(=O)O

What was measured:
[1] = test system: HN cells; assay: cell binding experiment, fluorescence microscopy; format: cell-based, human; details: for fluorescence signal intensity on cells: fixed HN cells, 10 μM, 1 h at r.t.
Source text: (§1) Human OSCC cell lines HN was purchased from the German Collection of Microorganisms and Cell Cultures, Braunschweig, Germany (DSMZ no. ACC 417 (HN) The HN cell line was established from a cervical lymph node metastasis of an invasive squamous cell carcinoma of the soft palate. The metastasis occurred 7 years after treatment of the primary tumour and metastasized to the lung and brain. ^49 As control cells, we used the human ovarian cancer cell line OVMZ6 with low integrin avb6 and high integrin αvβ3 expression. ^50 All cells were cultivated in Dulbecco's Modified Eagle's Medium (DMEM) (Sigma-Aldrich, St. Louis, Mo., USA), supplemented with 10% (v/v) fetal calf serum (FCS) (Gibco, Lifelechnologies™, Carlsbad, Calif., USA).
(§2) HN and OVMZ6 cells were cultivated for 24 h on fibronectin-coated microchamber slides at a density of 25×10^3/well, thereafter fixed in 2% (w/v) PFA for 15 min at r.t. and washed in PBS. The Cy5.5-conjugated compound OM_1231, dissolved in PBS, 5% (v/v) dimethyl sulfoxide (DMSO), was applied at a final concentration of 10 μM for 1 h at r.t., followed by 3 washes in PBS. […] As control peptide served the non-binding cycl(R^betaADfK) labelled via lysine side-chain NH2 group with Cy5.5 fluorescent dye (code OM_1224). After the incubation period, cells were washed 6 times in PBS and slides mounted. Fluorescence signal intensity was detected by the microscope Zeiss LSM 700 (Zeiss) as described above. Images were merged by applying for the fluorescence image the LUT “blue to red”: low intensity: blue; medium intensity: green; and high intensity: red.

[2] = target: α5β1 (Homo sapiens, UniProt P05556+P08648); assay: solid-phase integrin binding assay; details: n = 2
[3] = target: αvβ5 (Homo sapiens, UniProt P06756+P18084); assay: solid-phase integrin binding assay; details: n = 2
Method: (§3) The integrin binding affinity and selectivity profile of the compounds was determined by a solid-phase binding assay as previously described.^48

[4] = target: αIIbβ3 (Homo sapiens, UniProt P05106+P08514); assay: solid-phase integrin binding assay; details: n = 2
Method: as §3

[5] = biodistribution and nonspecific binding in control animals (control TX, sham TX, unoperated); details: for renal clearance: 6 h after injection
Method: Similarly, healthy oral epithelium was transplanted for control experiments.
Control experiments were performed with sham operations and transplantation with healthy control tissue, which were imaged with FRX110 and FRX109 as the control tracer.
The specificity of the binding was investigated in the in vivo model with the control tracer FRX109. FRX109 was visualized in mice with a sham graft (sham TX) of human carcinoma tissue (no tissue was transplanted).

[6] = target: αvβ3 (Homo sapiens, UniProt P05106+P06756); assay: solid-phase integrin binding assay; details: n = 2
[7] = target: αvβ6 (Homo sapiens, UniProt P06756+P18564); assay: solid-phase integrin binding assay; details: n = 2
[8] = target: αvβ8 (Homo sapiens, UniProt P06756+P26012); assay: solid-phase integrin binding assay; details: n = 2
[9] = test system: OVMZ6 cells; assay: cell binding experiment, fluorescence microscopy; format: cell-based, human; details: fixed OVMZ6 cells (low αvβ6, high αvβ3), 10 μM
Source text: as §1, §2

[10] = biodistribution by fluorescence intensity in HNSCC PDX mice
Method: Relying on fluorescence intensity measurements, the distribution and accumulation of FRX103 in the organism was determined over the time period shown.

[11] = test system: invasive HNSCC tissue; assay: molecular bioimaging in HNSCC PDX mouse model; format: in vivo, NOD/SCID mice
Method: An orthotopic HNSCC PDX (head and neck squamous cell carcinoma patient derived xenotransplant) mouse model was developed that allows the analysis of invasive, orthotropic human carcinoma tissue. HNSCC tissue samples were transplanted into the neck area of NOD/SCID mice. This provides epithelial derived carcinoma tissue in a mesenchymal tissue context to mimic the epithelial-mesenchymal interface between invasive carcinoma tissue and stroma. […]
Bioimgaing was performed relying on equipment described in ^42 using a 750 nm CW laser diode (BWF2-750-0, B & W Tek, Newark, Del., USA) with a maximum power of 300 mW was used to excite the fluorophores. […] The laser power was measured at a working distance of 15 cm at 85 mW/cm 2, which is lower than the maximum permissible exposure according to the standard of the American National Standards Institute (ANSI). A short-pass filter (E700SP, Chroma Technology, Rockingham, Vt., USA) was used to eliminate component of the field illumination NIRF signal to preclude interference between the fluorescence detection field and the field illumination light path (F1). […]
The measurements of the average fluorescence intensity/pixels were made in two regions of interests (ROIs). […]
The quotient ROI1/ROI2 of the average fluorescence intensity/pixel is given as tumor tissue to background ratio (TBR). […]

[12] = 0-24 h post injectionem, FIG. 5b

Chain of αvβ8 (P06756 31-889 limits assumed): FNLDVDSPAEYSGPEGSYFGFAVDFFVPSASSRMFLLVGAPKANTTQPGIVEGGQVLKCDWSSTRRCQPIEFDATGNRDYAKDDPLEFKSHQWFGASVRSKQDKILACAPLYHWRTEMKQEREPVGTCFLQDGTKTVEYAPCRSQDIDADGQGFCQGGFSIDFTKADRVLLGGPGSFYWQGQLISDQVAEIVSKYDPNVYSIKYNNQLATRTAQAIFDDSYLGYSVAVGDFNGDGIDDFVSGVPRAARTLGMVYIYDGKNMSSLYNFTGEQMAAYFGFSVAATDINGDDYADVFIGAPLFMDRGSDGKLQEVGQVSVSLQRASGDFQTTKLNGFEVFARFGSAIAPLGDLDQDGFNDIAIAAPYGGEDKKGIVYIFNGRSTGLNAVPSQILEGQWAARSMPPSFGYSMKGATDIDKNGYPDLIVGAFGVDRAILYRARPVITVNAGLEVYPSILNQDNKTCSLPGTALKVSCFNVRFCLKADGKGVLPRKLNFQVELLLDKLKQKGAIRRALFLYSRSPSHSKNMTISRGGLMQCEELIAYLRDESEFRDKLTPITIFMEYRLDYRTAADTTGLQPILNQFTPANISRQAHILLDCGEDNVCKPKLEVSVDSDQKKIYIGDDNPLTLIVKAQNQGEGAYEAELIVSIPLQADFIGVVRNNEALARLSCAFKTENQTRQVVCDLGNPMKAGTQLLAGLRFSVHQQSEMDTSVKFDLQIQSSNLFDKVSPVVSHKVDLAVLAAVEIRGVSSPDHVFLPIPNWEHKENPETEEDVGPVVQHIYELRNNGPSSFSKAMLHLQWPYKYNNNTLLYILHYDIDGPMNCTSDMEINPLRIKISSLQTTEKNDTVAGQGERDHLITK
Chain of αvβ8 (P06756 891-992 partner limits assumed): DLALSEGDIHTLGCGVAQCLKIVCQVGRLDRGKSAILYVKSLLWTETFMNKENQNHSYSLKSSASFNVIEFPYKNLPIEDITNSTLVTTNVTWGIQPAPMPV
Chain of αvβ8 (P26012 43-684 limits assumed): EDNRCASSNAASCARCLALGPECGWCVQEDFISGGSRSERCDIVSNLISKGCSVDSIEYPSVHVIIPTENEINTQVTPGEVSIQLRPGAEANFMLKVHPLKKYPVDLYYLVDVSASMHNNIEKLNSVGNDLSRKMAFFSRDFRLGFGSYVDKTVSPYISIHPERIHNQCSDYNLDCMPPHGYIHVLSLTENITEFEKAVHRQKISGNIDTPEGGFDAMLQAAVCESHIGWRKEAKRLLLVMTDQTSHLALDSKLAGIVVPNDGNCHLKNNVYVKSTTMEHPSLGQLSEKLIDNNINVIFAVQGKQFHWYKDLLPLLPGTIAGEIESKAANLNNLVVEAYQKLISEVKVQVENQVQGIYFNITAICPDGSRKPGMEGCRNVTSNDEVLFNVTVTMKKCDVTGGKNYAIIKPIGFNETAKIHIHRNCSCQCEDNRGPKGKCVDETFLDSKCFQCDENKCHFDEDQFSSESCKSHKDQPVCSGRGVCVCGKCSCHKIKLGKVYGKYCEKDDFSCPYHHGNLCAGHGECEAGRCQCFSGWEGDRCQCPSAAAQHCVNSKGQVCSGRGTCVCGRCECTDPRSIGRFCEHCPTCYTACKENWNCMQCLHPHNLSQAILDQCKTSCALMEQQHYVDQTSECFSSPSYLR
Chain of αvβ6 (P06756 31-889 limits assumed): as the sequence (P06756 31-889 limits assumed) above
Chain of αvβ6 (P06756 891-992 partner limits assumed): as the sequence (P06756 891-992 partner limits assumed) above
Chain of αvβ6 (P18564 22-707 limits assumed): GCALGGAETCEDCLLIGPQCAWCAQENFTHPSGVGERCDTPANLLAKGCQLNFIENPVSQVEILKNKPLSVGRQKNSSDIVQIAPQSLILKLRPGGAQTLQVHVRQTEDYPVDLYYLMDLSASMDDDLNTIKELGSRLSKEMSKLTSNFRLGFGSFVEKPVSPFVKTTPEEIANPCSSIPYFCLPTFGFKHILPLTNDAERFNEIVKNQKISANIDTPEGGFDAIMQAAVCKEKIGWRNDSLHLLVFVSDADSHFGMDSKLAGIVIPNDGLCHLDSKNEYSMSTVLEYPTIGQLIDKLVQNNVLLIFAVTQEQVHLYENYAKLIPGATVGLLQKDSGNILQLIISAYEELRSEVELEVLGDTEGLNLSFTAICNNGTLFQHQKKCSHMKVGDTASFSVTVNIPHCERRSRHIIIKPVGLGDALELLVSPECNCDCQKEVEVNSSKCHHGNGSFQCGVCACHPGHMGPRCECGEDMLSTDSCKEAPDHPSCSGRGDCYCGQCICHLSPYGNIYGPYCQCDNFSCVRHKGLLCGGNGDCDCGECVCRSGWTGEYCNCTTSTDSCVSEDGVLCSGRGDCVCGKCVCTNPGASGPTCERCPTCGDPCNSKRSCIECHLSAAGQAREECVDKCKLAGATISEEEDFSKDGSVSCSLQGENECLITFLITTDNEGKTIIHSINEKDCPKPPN
Chain of α5β1 (P08648 42-894 limits assumed): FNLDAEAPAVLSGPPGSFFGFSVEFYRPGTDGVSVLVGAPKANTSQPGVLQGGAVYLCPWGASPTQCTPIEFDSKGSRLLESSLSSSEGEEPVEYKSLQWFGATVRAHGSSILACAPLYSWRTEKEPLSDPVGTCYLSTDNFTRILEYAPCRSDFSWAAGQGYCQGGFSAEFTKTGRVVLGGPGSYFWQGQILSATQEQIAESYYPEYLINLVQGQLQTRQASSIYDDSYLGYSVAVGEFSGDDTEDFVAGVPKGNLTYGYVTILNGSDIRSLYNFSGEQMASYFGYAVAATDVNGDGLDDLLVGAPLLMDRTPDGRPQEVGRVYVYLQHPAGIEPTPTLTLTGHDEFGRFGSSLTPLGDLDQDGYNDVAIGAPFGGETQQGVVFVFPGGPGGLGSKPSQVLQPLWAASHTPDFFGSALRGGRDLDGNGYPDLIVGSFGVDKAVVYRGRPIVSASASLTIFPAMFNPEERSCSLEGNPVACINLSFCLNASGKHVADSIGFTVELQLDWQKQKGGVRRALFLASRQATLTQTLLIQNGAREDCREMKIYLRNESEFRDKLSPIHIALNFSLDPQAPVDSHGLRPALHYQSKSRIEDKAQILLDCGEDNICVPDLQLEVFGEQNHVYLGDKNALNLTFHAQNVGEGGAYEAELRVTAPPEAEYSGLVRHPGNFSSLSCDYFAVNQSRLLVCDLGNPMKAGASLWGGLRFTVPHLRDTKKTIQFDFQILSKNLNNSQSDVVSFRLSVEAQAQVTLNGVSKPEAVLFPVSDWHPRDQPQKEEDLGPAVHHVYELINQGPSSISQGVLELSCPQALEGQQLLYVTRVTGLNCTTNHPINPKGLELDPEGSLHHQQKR
Chain of α5β1 (P08648 895-995 partner limits assumed): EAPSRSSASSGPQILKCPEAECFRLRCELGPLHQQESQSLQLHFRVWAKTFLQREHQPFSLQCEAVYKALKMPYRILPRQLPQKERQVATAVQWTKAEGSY
Chain of α5β1 (P05556 21-728 limits assumed): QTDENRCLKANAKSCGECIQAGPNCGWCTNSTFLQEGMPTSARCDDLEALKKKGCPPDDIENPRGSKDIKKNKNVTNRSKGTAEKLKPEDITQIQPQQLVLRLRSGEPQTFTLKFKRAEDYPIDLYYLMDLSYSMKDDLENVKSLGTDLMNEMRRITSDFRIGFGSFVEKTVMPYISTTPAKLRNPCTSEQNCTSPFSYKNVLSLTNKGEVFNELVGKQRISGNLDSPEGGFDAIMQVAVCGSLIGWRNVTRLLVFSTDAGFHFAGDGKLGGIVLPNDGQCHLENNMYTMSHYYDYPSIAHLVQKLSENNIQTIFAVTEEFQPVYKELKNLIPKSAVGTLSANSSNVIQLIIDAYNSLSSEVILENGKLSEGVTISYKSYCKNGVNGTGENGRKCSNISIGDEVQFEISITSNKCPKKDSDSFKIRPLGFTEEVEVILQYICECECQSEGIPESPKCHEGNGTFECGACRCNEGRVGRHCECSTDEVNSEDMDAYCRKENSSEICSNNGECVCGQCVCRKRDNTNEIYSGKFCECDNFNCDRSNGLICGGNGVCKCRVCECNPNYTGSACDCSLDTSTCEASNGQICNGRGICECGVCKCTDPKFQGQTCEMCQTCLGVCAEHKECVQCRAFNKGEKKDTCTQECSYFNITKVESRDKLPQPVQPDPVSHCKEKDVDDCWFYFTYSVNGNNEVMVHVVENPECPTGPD
Chain of αvβ3 (P06756 31-889 limits assumed): as the sequence (P06756 31-889 limits assumed) above
Chain of αvβ3 (P06756 891-1048 partner limits assumed): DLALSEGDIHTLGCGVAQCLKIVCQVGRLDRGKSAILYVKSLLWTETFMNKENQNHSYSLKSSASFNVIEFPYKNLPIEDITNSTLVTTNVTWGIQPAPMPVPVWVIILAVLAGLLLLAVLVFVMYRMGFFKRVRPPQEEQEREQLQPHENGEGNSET
Chain of αvβ3 (P05106 27-788): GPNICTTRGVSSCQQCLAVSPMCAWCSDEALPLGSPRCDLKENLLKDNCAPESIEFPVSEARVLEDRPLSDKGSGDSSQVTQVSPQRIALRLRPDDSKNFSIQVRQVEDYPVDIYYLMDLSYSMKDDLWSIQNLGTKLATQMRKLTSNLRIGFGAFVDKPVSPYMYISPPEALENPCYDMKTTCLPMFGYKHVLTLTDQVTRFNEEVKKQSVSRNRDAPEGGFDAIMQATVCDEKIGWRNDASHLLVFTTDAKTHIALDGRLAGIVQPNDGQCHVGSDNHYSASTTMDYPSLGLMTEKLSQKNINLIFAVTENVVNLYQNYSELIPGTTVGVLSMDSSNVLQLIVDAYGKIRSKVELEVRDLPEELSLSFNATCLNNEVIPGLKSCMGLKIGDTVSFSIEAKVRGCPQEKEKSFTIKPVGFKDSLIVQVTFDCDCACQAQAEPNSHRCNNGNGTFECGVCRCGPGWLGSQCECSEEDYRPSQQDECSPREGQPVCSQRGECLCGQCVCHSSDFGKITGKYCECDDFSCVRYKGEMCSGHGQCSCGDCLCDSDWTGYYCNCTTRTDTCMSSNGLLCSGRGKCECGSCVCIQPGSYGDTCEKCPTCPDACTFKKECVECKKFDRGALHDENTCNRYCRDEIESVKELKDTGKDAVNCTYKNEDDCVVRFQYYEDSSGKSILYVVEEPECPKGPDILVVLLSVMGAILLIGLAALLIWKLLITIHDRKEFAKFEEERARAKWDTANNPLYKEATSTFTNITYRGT

Row | Molecule | fluorescence signal intensity on cells [1] | IC50 [2] [nM] | IC50 [3] [nM] | renal clearance ([5]; FIG. 5c) | IC50 [6] [nM] | IC50 [7] [nM] | IC50 [8] [nM] | other results
1 | cyc(R-betaAla-D-f-K(Ahx-Cy5.5)) [OM1224] | did not result in fluorescence signal intensity | – | – | – | – | – | – | –
2 | CC(C)C[C@@H]1NC(=O)[C@H](CC(=O)O)NC(=O)[C@H](C)NC(=O)[C@H](CCCNC(=N)N)NC(=O)[C@H](Cc2ccccc2)NC(=O)[C@H](CCCCNC(=O)CCCCCNC(=O)CCCCC[N+]2=C(/C=C/C3=C(Oc4ccc(S(=O)(=O)O)cc4)C(=C/C=C4/N(CCCCS(=O)(=O)O)c5ccc(S(=O)(=O)O)cc5C4(C)C)/CCC3)C(C)(C)c3cc(S(=O)(=O)[O-])ccc32)N(C)C(=O)[C@H]2CCCN2C(=O)[C@H](Cc2ccccc2)NC(=O)[C@H](C)NC1=O [FRX109, cyc(FRADLAFp(NMe)K(Ahx-IRDye ® 800CW))] (cyclo(FRADLAF[dP][NMeK]([Ahx-IRDye800CW]))) | – | > 1000 | > 10000 | good renal clearance | > 10000 | 122 ± 12 | > 4000 | IC50 [4]: > 1000 nM
3 | CC(C)C[C@@H]1NC(=O)[C@H](CC(=O)O)NC(=O)CNC(=O)[C@H](CCCNC(=N)N)NC(=O)[C@H](Cc2ccccc2)NC(=O)[C@H](CCCCNC(=O)CCCCCNC(=O)CCCCC[N+]2=C(/C=C/C=C/C=C3/N(C)c4ccc5ccccc5c4C3(C)C)C(C)(C)c3c2ccc2ccccc32)N(C)C(=O)[C@H]2CCCN2C(=O)[C@H](Cc2ccccc2)NC(=O)[C@H](C)NC1=O [OM1231, cyc(FRGDLAFp(NMe)K(Ahx-Cy5.5))] | strong fluorescence signal intensity on cell membranes | – | – | – | – | 27 ± 2 | 234 ± 33 | recognition of cellular integrin αvβ3 [9]: did not recognize cellular integrin αvβ3; fluorescence signal intensity after blocking ([1]; HN cells, unlabeled OM_1204 at 10-fold molar excess 1 h prior to OM_1231 (10 μM)): strong reduction in fluorescence signal intensity
4 | CC(C)C[C@@H]1NC(=O)[C@H](CC(=O)O)NC(=O)CNC(=O)[C@H](CCCNC(=N)N)NC(=O)[C@H](Cc2ccccc2)NC(=O)[C@H](CCCCNC(=O)CCCCCNC(=O)CCCCC[N+]2=C(/C=C/C3=CC(=C/C=C4/N(C)c5ccc6ccccc6c5C4(C)C)/CCC3)C(C)(C)c3c2ccc2ccccc32)N(C)C(=O)[C@H]2CCCN2C(=O)[C@H](Cc2ccccc2)NC(=O)[C@H](C)NC1=O [FRX103, cyc(FRGDLAFp(NMe)K(Ahx-Cy7.5))] | – | – | – | – | – | – | – | time p.i. of best ratio between specific signal and background signal ([10]; i.v., HNSCC PDX mice): 24 h; accumulation in the area of carcinoma tissue ([10]; i.v., up to 24 h p.i., FIG. 5a): constant accumulation; elimination after 24 h ([10]; mouse, in vivo, iv): does not show any elimination; nonspecific accumulation in the area of transplantation ([5]; control TX (healthy epithelial grafting)): no nonspecific accumulation; signal in liver and pancreas ([5]; mouse, in vivo): persistent signal
5 | CC(C)C[C@@H]1NC(=O)[C@H](CC(=O)O)NC(=O)CNC(=O)[C@H](CCCNC(=N)N)NC(=O)[C@H](Cc2ccccc2)NC(=O)[C@H](CCCCNC(=O)CCCCCNC(=O)CCCCC[N+]2=C(/C=C/C3=C(Oc4ccc(S(=O)(=O)O)cc4)C(=C/C=C4/N(CCCCS(=O)(=O)O)c5ccc(S(=O)(=O)O)cc5C4(C)C)/CCC3)C(C)(C)c3cc(S(=O)(=O)[O-])ccc32)N(C)C(=O)[C@H]2CCCN2C(=O)[C@H](Cc2ccccc2)NC(=O)[C@H](C)NC1=O [FRX110, cyc(FRGDLAFp(NMe)K(Ahx-IRDye ® 800CW))] | – | 37 ± 6 | > 10000 | good renal clearance | 408 ± 61 | 2.2 ± 0.2 | 129 ± 36 | TBR [10, 12]: 1.0; unspecific accumulation or binding [10, 12]: does not reveal unspecific accumulation or binding; time to elimination of unbound compound via the renal system ([10]; i.v.): ≤ 24 h; binding to invasive growing carcinoma xenotransplants ([11]; 1st to 12th week p. TX): specific binding; tissue to background (TBR) ratio ([11]; 5th week p. TX, i.v. tail vein, FIG. 4a): high; tissue to background (TBR) ratio ([5]; control animals, FIG. 5c): low; unspecific tracer enhancement ([5]; control animals, FIG. 5c): without unspecific tracer enhancement
